Results: patent US20100022541A1, “Chemical inhibitors of bacterial heptose synthesis, methods for their preparation and biological applications of said inhibitors” (priority 2006, published 2010)
pIC50: −log10 of the molar value.

Biological target: T1, RfaE (Escherichia coli, UniProt P76658)
T1 construct: made in house; host or cells: E. coli
Assay: Inhibition of the enzymatic activity of RfaE (HTS luminescent or fluorescent biochemical assay)
Parameters: species or system E. coli
Conditions: inhibitor tested at 6 to 10 concentrations; 30 min pre-incubation at room temperature
Experimental: According to another object, the invention also relates to a method for assessing RfaE enzymatic activity. • Said method comprises • pre-incubating at room temperature • DMSO or inhibitor to be tested dissolved in DMSO and RfaE in an assay buffer • and either • adding a reaction mixture composed of RfaE, β-heptose-7-phosphate, ATP, in the assay buffer and incubating at room temperature • adding a revelation mixture composed of luciferase, D-luciferin and N-acetylcysteamine • measuring the luminescence intensity and converting into inhibition % to further calculate the IC50 values; • or • adding a reaction mixture composed of RfaE, β-heptose-7-phosphate ATP, pyruvate kinase, phosphoenolpyruvate, lactate dehydrogenase and NADH in said assay buffer, • measuring the fluorescence intensity of NADH kinetically and deriving inhibition % from fitted initial velocities, to further calculate the IC50 values.
Inhibition of the Enzymatic Activity of RfaE
RfaE is a kinase belonging to the ribokinase family. It catalyses an essential step of the biosynthesis of L-ADP-Heptose, namely the phosphorylation of β-heptose-7-phosphate (H7P) into β-heptose-1,7-bisphosphate (H17P). RfaE assays as described in the literature are essentially based on direct HLPC detection of the substrates H7P and ATP, and of the products H17P and ADP, raising obvious limitations for HTS applications. The assays described below are based either on luminescent ATP detection, or on fluorescent ADP detection. They are easily amenable to miniaturized formats and fast readouts as required by HTS.
The assay buffer “AB” contains 50 mM Hepes pH7.5, 1 mM MnCl2, 25 mM KCl, 0.012% Triton-X100 and 1 mM DTT. The following components are added in a white polystyrene Costar plate up to a final volume of 31 μL: 3 μL DMSO, or inhibitor dissolved in DMSO and 28 μL RfaE in AB. After 30 min of pre-incubation at room temperature, 29 μL of Substrates mix in AB are added in each well to a final volume of 60 μL. This reaction mixture is then composed of 3 nM RfaE (produced in house from E. coli), 0.2 μM β-heptose-7-phosphate (in house synthesis) and 0.2 μM ATP (Sigma) in assay buffer. After 40 min of incubation at room temperature, 200 μL of the revelation mix are added to a final volume of 260 μL, including the following constituents at the respective final concentrations: 2 nM luciferase (Sigma), 30 μM D-luciferin (Sigma), 100 μM N-acetylcysteamine (Aldrich). Luminescence intensity is immediately measured on an Analyst-HT (Molecular Devices) and converted into inhibition percentages. For IC50 determinations, the inhibitor is tested at 6 to 10 different concentrations, and the related inhibitions are fitted to a classical langmuir equilibrium model using XLFIT (IDBS).
The assay buffer “AB” contains 50 mM Hepes pH7.5, 1 mM MnCl2, 25 mM KCl, 0.012% Triton-X100 and 1 mM DTT. The following components are added in a black polystyrene Costar plate up to a final volume of 50 μL: 5 μL DMSO, or inhibitor dissolved in DMSO and 45 μL RfaE in AB. After 30 min of pre-incubation at room temperature, 50 μL of Substrates-revelation mix in AB are added in each well to a final volume of 100 μL. This reaction mixture is then composed of 66 μM RfaE (produced in house from E. coli), 1 μM β-heptose-7-phosphate (in house synthesis), 50 μM ATP (Sigma), 5 u/mL Pyruvate Kinase (Sigma), 50 μM phosphoenolpyruvate (Sigma), 5 u/mL Lactate dehydrogenase (Sigma) and 2.5 μM NADH (Sigma) in assay buffer. Fluorescence intensity of NADH (λex=360 nm, λem=520 nm) is immediately measured kinetically by a Fluostar Optima (BMG). Inhibition percentages are derived from fitted initial velocities. For IC50 determinations, the inhibitor is tested at 6 to 10 different concentrations, and the related inhibitions are fitted to a classical langmuir equilibrium model using XLFIT (IDBS).

T1 sequence (P76658 whole entry): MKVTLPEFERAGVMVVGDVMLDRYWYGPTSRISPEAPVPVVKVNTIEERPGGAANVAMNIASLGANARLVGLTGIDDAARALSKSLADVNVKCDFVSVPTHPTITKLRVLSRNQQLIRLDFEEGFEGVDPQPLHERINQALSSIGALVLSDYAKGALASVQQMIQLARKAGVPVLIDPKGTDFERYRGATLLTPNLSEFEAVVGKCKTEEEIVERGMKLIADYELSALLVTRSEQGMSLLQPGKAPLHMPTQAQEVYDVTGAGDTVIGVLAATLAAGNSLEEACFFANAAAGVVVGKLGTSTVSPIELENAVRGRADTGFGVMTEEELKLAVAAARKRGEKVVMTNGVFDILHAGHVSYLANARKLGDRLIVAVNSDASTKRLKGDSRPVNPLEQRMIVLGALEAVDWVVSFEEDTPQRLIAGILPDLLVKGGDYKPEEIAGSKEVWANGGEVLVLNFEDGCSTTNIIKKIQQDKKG

Row | Structure (SMILES) | pIC50
1 | Cc1nc(-c2ccc(N)c([N+](=O)[O-])c2)sc1C(=O)N(CC(=O)O)Cc1ccccn1 [XXXVII, [{[2-(4-amino-3-nitrophenyl)-4-methyl-1,3-thiazol-5-yl]carbonyl}(pyridin-2-ylmethyl)amino]acetic Acid] | 4.89
2 | Cc1cccc(C)c1-c1nc(C)c(C(=O)N(CC(=O)O)Cc2nc3ccccc3s2)s1 [XL, ((1,3-benzothiazol-2-ylmethyl){[4-methyl-2-(2,6-dimethylphenyl)-1,3-thiazol-5-yl]carbonyl}amino)acetic Acid] | 4.30
3 | Cc1oc(-c2ccccc2)cc1C(=O)N(CC(=O)O)Cc1ccccn1 [Example X, [(2-methyl-5-phenyl-3-furoyl)(pyridin-2-ylmethyl)amino]acetic Acid] | 4.38
4 | Cc1oc(-c2cccc(C(F)(F)F)c2)nc1C(=O)N(CC(=O)O)Cc1ccccn1 [XIV, [({5-methyl-2-[3-(trifluoromethyl)phenyl]-1,3-oxazol-4-yl}carbonyl)(pyridin-2-ylmethyl)amino]acetic Acid] | 4.46
5 | Cc1oc(-c2ccccc2)nc1C(=O)N(CC(=O)O)Cc1ccccn1 [XII, [[(5-methyl-2-phenyl-1,3-oxazol-4-yl)carbonyl](pyridin-2-ylmethyl)amino]acetic Acid] | 4.29
6 | COc1ccc(-c2nc(C(=O)N(CC(=O)O)Cc3ccccn3)c(C)o2)cc1 [Example XXI, [{[2-(4-methoxyphenyl)-5-methyl-1,3-oxazol-4-yl]carbonyl}(pyridin-2-ylmethyl)amino]acetic Acid] | 4.12
7 | Cc1oc(-c2ccc(O)cc2)nc1C(=O)N(CC(=O)O)Cc1ccccn1 [XXIV, [{[2-(4-hydroxyphenyl)-5-methyl-1,3-oxazol-4-yl]carbonyl}(pyridin-2-ylmethyl)amino]acetic Acid] | 4.41
8 | O=C(O)CN(Cc1ccccn1)C(=O)c1nc(-c2ccccc2)oc1CN1CCOCC1 [II, [{[5-(morpholin-4-ylmethyl)-2-phenyl-1,3-oxazol-4-yl]carbonyl}(pyridin-2-ylmethyl)amino]acetic Acid] | 3.71
9 | Cc1oc(-c2ccc(N)cc2)nc1C(=O)N(CC(=O)O)Cc1ccccn1 [XXVII, [{[2-(4-aminophenyl)-5-methyl-1,3-oxazol-4-yl]carbonyl}(pyridin-2-ylmethyl)amino]acetic Acid] | 4.66
10 | Cc1nc(-c2ccccc2)sc1C(=O)N(CC(=O)O)Cc1ccccn1 [IX, [[(4-methyl-2-phenyl-1,3-thiazol-5-yl)carbonyl](pyridin-2-ylmethyl)amino]acetic Acid] | 4.28
11 | Cc1oc(-c2ccccc2[N+](=O)[O-])nc1C(=O)N(CC(=O)O)Cc1ccccn1 [Example XXII, [{[5-methyl-2-(2-nitrophenyl)-1,3-oxazol-4-yl]carbonyl}(pyridin-2-ylmethyl)amino]acetic Acid] | 3.85
12 | COc1cccc(-c2nc(C(=O)N(CC(=O)O)Cc3ccccn3)c(C)o2)c1 [Example XX, [{[2-(3-methoxyphenyl)-5-methyl-1,3-oxazol-4-yl]carbonyl}(pyridin-2-ylmethyl)amino]acetic Acid] | 4.82
13 | Cc1nc(-c2ccc3ccccc3c2)sc1C(=O)N(CC(=O)O)Cc1nc2ccccc2s1 [XLI, ((1,3-benzothiazol-2-ylmethyl){[4-methyl-2-(2-naphthyl)-1,3-thiazol-5-yl]carbonyl}amino)acetic Acid] | 6.32
14 | Cc1oc(-c2ccccc2C(F)(F)F)nc1C(=O)N(CC(=O)O)Cc1ccccn1 [XV, [({5-methyl-2-[2-(trifluoromethyl)phenyl]-1,3-oxazol-4-yl}carbonyl)(pyridin-2-ylmethyl)amino]acetic Acid] | 3.92
15 | O=C(O)CN(Cc1ccccn1)C(=O)c1ccc(-c2ccccc2)o1 [VII, [(5-phenyl-2-furoyl)(pyridin-2-ylmethyl)amino]acetic Acid] | 4.00
16 | Cc1oc(-c2cccc(O)c2)nc1C(=O)N(CC(=O)O)Cc1ccccn1 [XXV, [{[2-(3-hydroxyphenyl)-5-methyl-1,3-oxazol-4-yl]carbonyl}(pyridin-2-ylmethyl)amino]acetic Acid] | 4.30
17 | Cc1oc(-c2ccc(C(F)(F)F)cc2)nc1C(=O)N(CC(=O)O)Cc1ccccn1 [XVI, [({5-methyl-2-[4-(trifluoromethyl)phenyl]-1,3-oxazol-4-yl}carbonyl)(pyridin-2-ylmethyl)amino]acetic Acid] | 3.85
18 | Cc1nc(-c2ccc(Cl)cc2)oc1C(=O)N(CC(=O)O)Cc1ccccn1 [V, [{[2-(4-chlorophenyl)-4-methyl-1,3-oxazol-5-yl]carbonyl}(pyridin-2-ylmethyl)amino]acetic acid] | 4.27
19 | Cc1oc(-c2ccccc2Br)nc1C(=O)N(CC(=O)O)Cc1ccccn1 [XIX, [{[2-(2-bromophenyl)-5-methyl-1,3-oxazol-4-yl]carbonyl}(pyridin-2-ylmethyl)amino]acetic Acid] | 4.36
20 | Cc1oc(-c2ccccc2)nc1C(=O)N(CC(=O)O)Cc1nccs1 [XXXIII, [[(5-methyl-2-phenyl-1,3-oxazol-4-yl)carbonyl](1,3-thiazol-2-ylmethyl)amino]acetic Acid] | 3.96
21 | COc1cccc(-c2nc(C)c(C(=O)N(CC(=O)O)C(C)c3ccccn3)o2)c1 (centres unmarked) [XXXV, [{[2-(3-methoxyphenyl)-4-methyl-1,3-oxazol-5-yl]carbonyl}(1-pyridin-2-ylethyl)amino]acetic Acid] | 4.72
22 | Cc1nc(-c2ccccc2)oc1C(=O)N(CC(=O)O)Cc1ccc(-c2ccccc2F)o1 [XXXII, ([(4-methyl-2-phenyl-1,3-oxazol-5-yl)carbonyl]{[5-(2-fluorophenyl)-2-furyl]methyl}amino)acetic Acid] | 3.90
23 | Cc1oc(-c2ccccc2N)nc1C(=O)N(CC(=O)O)Cc1ccccn1 [XXVI, [{[2-(2-aminophenyl)-5-methyl-1,3-oxazol-4-yl]carbonyl}(pyridin-2-ylmethyl)amino]acetic Acid] | 4.51
24 | Cc1oc(-c2ccccc2)nc1C(=O)N(CC(=O)O)Nc1ccccn1 [XXXI, {1-[(5-methyl-2-phenyl-1,3-oxazol-4-yl)carbonyl]-2-pyridin-2-ylhydrazino}acetic Acid] | 4.19
25 | CC(=O)Oc1cccc(-c2nc(C)c(C(=O)N(CC(=O)O)Cc3ccccn3)o2)c1 [IV, [({2-[3-(acetyloxy)phenyl]-4-methyl-1,3-oxazol-5-yl}carbonyl)(pyridin-2-ylmethyl)amino]acetic Acid] | 4.28
26 | COc1cccc(-c2nc(C)c(C(=O)N(CC(=O)O)Cc3ccccn3)o2)c1 [III, [{[2-(3-methoxyphenyl)-4-methyl-1,3-oxazol-5-yl]carbonyl}(pyridin-2-ylmethyl)amino]acetic Acid] | 4.77
27 | COc1cccc(-c2nc(C)c(C(=O)N(CC(=O)O)Cc3nc4cc(OC)ccc4s3)o2)c1 [XXX, ((5-methoxy-1,3-benzothiazol-2-ylmethyl){[2-(3-methoxyphenyl)-4-methyl-1,3-oxazol-5-yl]carbonyl}amino)acetic Acid] | 5.96
28 | O=C(O)CN(Cc1ccccn1)C(=O)c1nc(-c2ccccc2)oc1C(F)(F)F [XIII, [{[2-phenyl-5-(trifluoromethyl)-1,3-oxazol-4-yl]carbonyl}(pyridin-2-ylmethyl)amino]acetic Acid] | 4.10
29 | O=C(O)CN(Cc1ccccn1)C(=O)c1nc(-c2ccccc2)oc1COCc1ccccc1 [I, {[[5-(benzyloxy)methyl-2-phenyl-1,3-oxazol-4-yl]carbonyl](pyridin-2-ylmethyl)amino}acetic Acid] | 3.58
